Results from patent US12678403B2, “Pharmaceutical composition for preventing or treating obesity or non-alcoholic fatty liver containing Polygalin C as active ingredient” (UNIVERSITY-INDUSTRY COOPERATION GROUP OF KYUNG HEE …, priority 2021, dated 2026).

Legend:
[1] = tested on: C/EBPβ; test: Real-time PCR, C/EBPβ mRNA in 3T3-L1 adipocytes; format: cell-based, mouse; conditions: vs adipocytes
Procedure: (§1) 3T3-L1 cells were inoculated into a 6-well plate in a density of 8×10^4 cells/well, and the medium was replaced until the confluence is satisfied. For differentiation, cells were incubated in differentiation media (0.5 mM IBMX, 0.5 μM dexamethasone, and 1 μg/mL insulin). The medium was then replaced with a maintenance culture including 1 μg/mL insulin and PC (0-50 μM) once every 2 days.
(§2) Cells were treated with Ribo-Ex to extract RNA using GeneAll Hybrid-R RNA purification kit (GeneAll, Seoul, Korea). RNA was quantified using NanoDrop (Thermo Fisher Scientific). Amplification of complementary DNA was performed at 45° C. for 60 minutes and 95° C. for 15 minutes using a Maxime RT premix (iNtRON Biotechnology, South Korea). Real-time quantitative PCR was performed using the Universal SYBR Green Master Mix (Applied Biosystems, Foster City, CA, USA). Real-time PCR was performed on Applied Biosystems StepOne System (Applied Biosystems). In this study, relative target gene expression was quantified relatively to gene expression of glyceraldehyde 3-phosphate dehydrogenase to determine mRNA expression levels.
(§3) In order to additionally identify expression of other adipose tissue generation markers such as C/EBPβ and C/EBPδ, mRNA levels of these markers were examined.

[2] = tested on: SREBP1c; test: Real-time PCR, SREBP1c RNA in 3T3-L1 adipocytes; format: cell-based, mouse; conditions: vs fully differentiated adipocytes
Procedure: as §1, §2
(§4) In order to determine whether the PC inhibits the adipogenic factors, the degree of expression of the adipogenic factors was examined through Western blotting and real-time PCR. FAS and SREBP1 play an important role in adipogenesis, protein expression levels of which were investigated. […]

[3] = tested on: ACC1; test: Western blotting, ACC1 in NEFA-induced fatty liver HepG2 cells; format: cell-based, human; conditions: dose-dependently, vs NEFA-induced fatty liver cells
Procedure: (§5) HepG2 cells were inoculated into a 6-well plate in a density of 3×10^5 cells/well and incubated for one day. Then, for fatty liver induction, an FBS-free RPMI medium supplemented with 1% bovine serum albumin (BSA) and NEFA (0.66 mM oleic acid and 0.33 mM palmitic acid) was treated, followed by incubation for 24 hours. When treated with PC (0-50 μM), fatty liver induction medium was treated together for incubation for 24 hours.
(§6) Cell lysis buffer (Cell Signaling Technology) was used to lyse cells. The reagent for Bio-Rad protein assay was used to measure protein concentrations for Bradford assay. Each sample was separated by sodium dodecyl sulfate polyacrylamide gel electrophoresis using 8% acrylamide gel and then electrotransferred to a nitrocellulose membrane. The membrane was blocked with 3% bovine serum albumin (BSA) in Tris buffered saline/Tween 20 (TBS-T) at 4° C. for 1 hour and incubated overnight at 4° C. with COX-2, C/EBPα, PPARγ, SREBP1c, FAS, p-ACC, t-ACC, p-AMPK, t-AMPK (1:2000), and β-actin (1:10,000) antibodies. The membrane was extensively washed with TBS-T at 3 or more times for 30 minutes and incubated with goat anti-rabbit IgG-horseradish peroxidase (HRP) and goat anti-mouse IgG-HRP (1:10,000 all in TBS-T) secondary antibodies for 1 hour.
(§7) Due to treatment of free fatty acids such as NEFA, fatty liver is induced by fat accumulation. […]

[4] = tested on: MAPK kinase; test: Western blotting, activated MAPK kinase in MDI-induced adipocytes; format: cell-based, mouse; conditions: MDI-induced adipocytes (ERK, JNK, p38)
Procedure: as §1, §6
(§8) Next, MAPK and Akt signaling in adipocytes in the presence of PC were investigated by Western Blotting.

[5] = tested on: ACC; test: Western blotting, ACC phosphorylation in 3T3-L1 adipocytes; format: cell-based, mouse
Procedure: as §1, §6
(§9) The MAPK/Akt and AMPK/ACC signaling pathways are involved in the general steps of adipose tissue generation. […]

[6] = tested on: C/EBPα; test: Western blotting, C/EBPα protein in MDI-induced 3T3-L1 adipocytes; format: cell-based, mouse; conditions: vs MDI-induced group
Procedure: as §1, §6
(§10) To investigate how PC inhibits adipose tissue generation in 3T3-L1 cells, investigation was performed on protein expression levels of key adipose tissue generation markers. […]

[7] = tested on: AMPK; test: Western blotting, AMPK phosphorylation in 3T3-L1 adipocytes; format: cell-based, mouse
Procedure: as §1, §6, §9

[8] = tested on: PPARγ; test: Western blotting, PPARγ protein in MDI-induced 3T3-L1 adipocytes; format: cell-based, mouse; conditions: vs MDI-induced group
Procedure: as §1, §6, §10

[9] = tested on: SREBP1c; test: Western blotting, SREBP1c protein in 3T3-L1 adipocytes; format: cell-based, mouse; conditions: dose-dependently, vs fully differentiated adipocytes
Procedure: as §1
as §6, with “hour. […]” for “hour.”

[10] = tested on: COX-2; test: Western blotting, COX-2 in NEFA-induced fatty liver HepG2 cells; format: cell-based, human; conditions: NEFA-treated HepG2 cells
Procedure: as §5, §6
It is known that if the symptoms persist in the fatty liver stage, it causes an inflammatory reaction to develop steatohepatitis. […]

[11] = tested on: SREBP1c; test: Immunofluorescence analysis, SREBP1c in MDI-induced adipocytes; format: cell-based, mouse
Procedure: The cells were treated with or without PC in a 4-well confocal dish. After treatment, the cells were fixed with 10% formalin for 10 minutes, treated with 0.2% Triton X diluted in PBS for 20 minutes, washed with PBS 3 times, and blocked with 5% BSA dissolved in PBS for 1 hour. Next, cells were incubated overnight in the presence of anti-SREBP1 antibodies (1:500 in PBS) at 4° C., followed by incubation in the presence of Alexa Fluor-555 antibody for 1 hour at room temperature. The cell nucleus was stained with 4,6-diamidino-2-phenylindole (DAPI: Sigma-Aldrich) at room temperature for 3 minutes. DAPI-stained cells were washed with PBS for 30 minutes, and fluorescence was observed using CELENA™ S Digital Imaging System (Logos Biosystems, Inc.).
In order to determine whether the PC inhibits the adipogenic factors, the degree of expression of the adipogenic factors was examined through Western blotting and real-time PCR. FAS and SREBP1 play an important role in adipogenesis, protein expression levels of which were investigated. […] In addition, according to FIGS. 3B and 3C, the RNA level was reduced compared to fully differentiated adipocytes.

[12] = tested on: C/EBPα; test: Real-time PCR, C/EBPα mRNA in 3T3-L1 adipocytes; format: cell-based, mouse; conditions: vs fully differentiated adipocytes
Procedure: as §1, §2
(§11) To investigate how PC inhibits adipose tissue generation in 3T3-L1 cells, investigation was performed on protein expression levels of key adipose tissue generation markers. C/EBPα and PPARγ are well-known major transcription factors in adipose tissue generation. […]

[13] = tested on: FAS; test: Real-time PCR, FAS RNA in 3T3-L1 adipocytes; format: cell-based, mouse; conditions: vs fully differentiated adipocytes
Procedure: as §1, §2, §4

[14] = tested on: HepG2 cells; test: MTT assay, cytotoxicity of PC and NEFA in HepG2 cells; format: cell-based, human; conditions: 0-100 μM PC, 24 hours
Procedure: (§12) HepG2 hepatocytes were inoculated into a 96-well cell culture plate by 1×10^4 cells/well and incubated overnight. Then, for 24 hours, they were replaced with fatty liver induction media including different concentrations of PC (0, 5, 10, 25, 50, and 100 μM).
(§13) After PC treatment, cells were incubated with MTT solution (0.5 mg/ml dissolved in PBS) for 2 hours. After incubation, the medium in each well was removed, and dimethyl sulfoxide was added to dissolve the precipitated formazan. When formazan was completely dissolved, the absorbance was measured at 540 nm using a microplate reader (Bio-Rad) to determine cell viability.
In order to identify cytotoxicity of PC and NEFA in HepG2 cells, various concentrations of PC (0, 5, 10, 25, 50, and 100 μM) or NEFA (0, 0.5, 1, and 2 mM) were treated for 24 hours, and then MTT assay was used to determine cell viability.

[15] = tested on: FAS; test: Western blotting, FAS in NEFA-induced fatty liver HepG2 cells; format: cell-based, human; conditions: dose-dependently, vs NEFA-induced fatty liver cells
Procedure: as §5, §6, §7

[16] = tested on: C/EBPδ; test: Real-time PCR, C/EBPδ mRNA in 3T3-L1 adipocytes; format: cell-based, mouse; conditions: vs adipocytes
Procedure: as §1, §2, §3

[17] = tested on: HepG2 cells; test: Oil Red O staining, fat accumulation in fatty liver-induced HepG2 cells; format: cell-based, human; conditions: PC 0, 25, 50 μM, vs cells solely treated with NEFA
Procedure: as §5
(§14) The treated cells were washed with PBS and fixed with 10% formalin for 1 hour. The cells were then washed with 60% isopropanol and dried completely. A 60% Oil Red O working solution diluted in distilled water (DW) was added to the cells. In the case of hepatocytes, in order to observe the morphology of the cells, they were additionally treated with hematoxylin for 1 minute for staining. The stained cells were washed with DW 3 times and photographed using the Olympus IX71 microscope (Olympus, Tokyo, Japan). To quantify lipid accumulation, stained cells were dissolved in 100% isopropanol, and measurement was performed at 490 nm with a microplate reader (Bio-Rad).
To investigate whether PC has an inhibitory effect on fat accumulation, cells were treated in the presence and absence of PC at various concentrations (0, 25, and 50 μM), using Oil red O staining. […] Thus, PC reduced accumulation of lipid in fatty liver-induced HepG2 cells.

[18] = tested on: PPARγ; test: Real-time PCR, PPARγ mRNA in 3T3-L1 adipocytes; format: cell-based, mouse; conditions: vs fully differentiated adipocytes
Procedure: as §1, §2, §11

[19] = tested on: 3T3-L1 cells; test: MTT assay, cytotoxicity of PC in 3T3-L1 cells; format: cell-based, mouse; conditions: 0-100 μM PC, 48 hours
Procedure: 3T3-L1 preadipocytes were inoculated into a 96-well cell culture plate by 1×10^4 cells/well and incubated overnight. The medium was then replaced with DMEM including different concentrations of PC (0, 5, 10, 25, 50, 75, and 100 μM) for 48 hours.
as §13
In order to identify cytotoxicity of PC in 3T3-L1 cells, various concentrations of PC (0, 5, 10, 25, 50, 75, and 100 μM) were treated for 48 hours, and then cell viability was determined using MTT assay.

[20] = tested on: Akt; test: Western blotting, activated Akt in MDI-induced adipocytes; format: cell-based, mouse
Procedure: as §1, §6, §8

[21] = tested on: HepG2 cells; test: MTT assay, cell viability in NEFA-treated fatty liver-induced HepG2 cell model; format: cell-based, human; conditions: 1 mM NEFA with 50 µM PC, 24 hours
Procedure: as §5, §12, §13
To determine the preventive and therapeutic effects of PC in fatty liver-induced cell models, treatment of 1 mM NEFA as well as various concentrations of PC (0, 5, 10, 25, 50 μM) were performed for 24 hours, and then MTT assay was used to determine cell viability.

[22] = tested on: 3T3-L1 cells; test: Oil Red O staining, adipocyte differentiation / lipid accumulation in 3T3-L1 preadipocytes; format: cell-based, mouse; conditions: 3T3-L1 cells differentiated with PC 0, 25, 50 μM; vs fully differentiated adipocytes
Procedure: as §1, §14
To investigate whether PC has an inhibitory effect on adipose tissue differentiation, cells were differentiated in the presence and absence of PC at various concentrations (0, 25, and 50 μM), and then Oil red O staining was used. […] Thus, PC reduced accumulation of lipids in 3T3-L1 cells during adipose tissue generation differentiation.

[23] = tested on: FAS; test: Western blotting, FAS protein in 3T3-L1 adipocytes; format: cell-based, mouse; conditions: dose-dependently, vs fully differentiated adipocytes
Procedure: as §1
as §6, with “hour. […]” for “hour.”

[24] = PC treatment, 3T3-L1 adipocytes
[25] = vs fully differentiated adipocytes

Substance: Polygalin C [PC]
- mRNA level of C/EBPβ [1]: decreased concentration-dependently
- RNA level of SREBP1c [2]: reduced
- expression level of ACC1 [3]: significantly reduced
- expression level of activated MAPK kinase [4]: significantly reduced dose-dependently
- total ACC expression level [5, 24]: unchanged
- phosphorylation of ACC [5, 25]: significantly increased
- relative protein level of C/EBPα [6]: decreased dose-dependently
- total AMPK expression level [7, 24]: unchanged
- phosphorylation of AMPK [7, 25]: significantly increased
- relative protein level of PPARγ [8]: decreased dose-dependently
- protein expression level of SREBP1c [9]: significantly reduced
- expression of COX-2 induced by NEFA treatment [10]: reduced concentration-dependently
- MDI-induced SREBP1c expression (immunofluorescence) [11]: significant relieving effect
- mRNA expression level of C/EBPα [12]: reduced
- RNA level of FAS [13]: reduced
- concentration with non-toxic effect (cell viability, MTT) [14]: up to 100 μM
- expression level of FAS [15]: significantly reduced
- mRNA level of C/EBPδ [16]: decreased concentration-dependently
- production of lipid droplets (Oil red O) [17]: dose-dependently inhibited
- mRNA expression level of PPARγ [18]: reduced
- concentration with non-toxic effect (cell viability, MTT) [19]: up to 50 μM
- expression level of activated Akt [20]: significantly reduced dose-dependently
- cell viability (MTT) in NEFA-treated cells [21]: cell viability was restored
- production of lipid droplets (Oil red O) [22]: dose-dependently inhibited
- protein expression level of FAS [23]: significantly reduced
